# Values of other authors in US11044905B2, “Tablet with an antimycotic agent, medical device and method for preserving harvested corneas” (ALCHILIFE S.R.L., priority 2018, dated 2021).
# Conditions: organ culture preservation, 31° C.
smiles,measurement,value
C[C@@H]1[C@H](O)[C@@H](C)/C=C/C=C/C=C/C=C/C=C/C=C/C=C/[C@H](O[C@@H]2O[C@H](C)[C@@H](O)[C@H](N)[C@@H]2O)C[C@@H]2O[C@](O)(C[C@@H](O)C[C@@H](O)[C@H](O)CC[C@@H](O)C[C@@H](O)CC(=O)O[C@H]1C)C[C@H](O)[C@H]2C(=O)O [Amphotericin B],period of effective protection under conditions of use,≤ 14 days
